Source: PubChem BioAssay (NCI)
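Protocol summary: plate cells (96-well), add compound at 5 concentrations, incubate 48 h, interpolate endpoints linearly. Definition used: TGI = concentration required for complete inhibition of growth.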

Tests used:
Assay in all cases: NCI anticancer screen, dose series, 48 h
SW-620 colon = tested on: SW-620 colon
CCRF-CEM leukemia = tested on: CCRF-CEM leukemia
NCI-H522 lung = tested on: NCI-H522 lung
TK-10 renal = tested on: TK-10 renal
SK-MEL-28 melanoma = tested on: SK-MEL-28 melanoma
SNB-75 CNS = tested on: SNB-75 CNS
KM12 colon = tested on: KM12 colon
MDA-MB-231 breast = tested on: MDA-MB-231 breast
PC-3 prostate = tested on: PC-3 prostate
RPMI-8226 leukemia = tested on: RPMI-8226 leukemia
MOLT-4 leukemia = tested on: MOLT-4 leukemia
OVCAR-8 ovarian = tested on: OVCAR-8 ovarian
DU-145 prostate = tested on: DU-145 prostate
SR leukemia = tested on: SR leukemia
MDA-N = tested on: MDA-N
HCT-116 colon = tested on: HCT-116 colon
M14 melanoma = tested on: M14 melanoma
SK-MEL-2 melanoma = tested on: SK-MEL-2 melanoma
SN12C renal = tested on: SN12C renal
NCI-H460 lung = tested on: NCI-H460 lung
SF-295 CNS = tested on: SF-295 CNS
MDA-MB-435 = tested on: MDA-MB-435
SK-OV-3 ovarian = tested on: SK-OV-3 ovarian
HOP-62 NSCLC = tested on: HOP-62 NSCLC
NCI/ADR-RES ovarian = tested on: NCI/ADR-RES ovarian
A549 NSCLC = tested on: A549 NSCLC
NCI-H226 lung = tested on: NCI-H226 lung
COLO 205 colon = tested on: COLO 205 colon
LOX IMVI melanoma = tested on: LOX IMVI melanoma
UACC-62 melanoma = tested on: UACC-62 melanoma
ACHN renal = tested on: ACHN renal
MCF7 breast = tested on: MCF7 breast
RXF 393 renal = tested on: RXF 393 renal
OVCAR-5 ovarian = tested on: OVCAR-5 ovarian
OVCAR-4 ovarian = tested on: OVCAR-4 ovarian
OVCAR-3 ovarian = tested on: OVCAR-3 ovarian
HCC-2998 colon = tested on: HCC-2998 colon
SF-539 CNS = tested on: SF-539 CNS
HT29 colon = tested on: HT29 colon
SK-MEL-5 melanoma = tested on: SK-MEL-5 melanoma
K-562 leukemia = tested on: K-562 leukemia
HS 578T breast = tested on: HS 578T breast
MALME-3M melanoma = tested on: MALME-3M melanoma
HCT-15 colon = tested on: HCT-15 colon
UO-31 renal = tested on: UO-31 renal
A498 renal = tested on: A498 renal
SF-268 CNS = tested on: SF-268 CNS
IGROV1 ovarian = tested on: IGROV1 ovarian
SNB-19 CNS = tested on: SNB-19 CNS
HL-60(TB) leukemia = tested on: HL-60(TB) leukemia
T-47D breast = tested on: T-47D breast
CAKI-1 renal = tested on: CAKI-1 renal
EKVX NSCLC = tested on: EKVX NSCLC
NCI-H23 lung = tested on: NCI-H23 lung
UACC-257 melanoma = tested on: UACC-257 melanoma
U251 CNS = tested on: U251 CNS
HOP-92 NSCLC = tested on: HOP-92 NSCLC
786-0 renal = tested on: 786-0 renal

## COc1ccc(NC2=NCCO2)c2ccccc12
SW-620 colon
  TGI: > 10 µM
CCRF-CEM leukemia
  TGI: > 10 µM
NCI-H522 lung
  TGI: > 10 µM
TK-10 renal
  TGI: > 10 µM
SK-MEL-28 melanoma
  TGI: > 10 µM
SNB-75 CNS
  TGI: > 10 µM
KM12 colon
  TGI: > 10 µM
MDA-MB-231 breast
  TGI: > 10 µM
PC-3 prostate
  TGI: > 10 µM
RPMI-8226 leukemia
  TGI: > 10 µM
MOLT-4 leukemia
  TGI: > 10 µM
OVCAR-8 ovarian
  TGI: > 10 µM
DU-145 prostate
  TGI: > 10 µM
SR leukemia
  TGI: > 10 µM
MDA-N
  TGI: > 10 µM
HCT-116 colon
  TGI: > 10 µM
M14 melanoma
  TGI: > 10 µM
SK-MEL-2 melanoma
  TGI: > 10 µM
SN12C renal
  TGI: > 10 µM
NCI-H460 lung
  TGI: > 10 µM
SF-295 CNS
  TGI: > 10 µM
MDA-MB-435
  TGI: > 10 µM
SK-OV-3 ovarian
  TGI: > 10 µM
HOP-62 NSCLC
  TGI: > 10 µM
NCI/ADR-RES ovarian
  TGI: > 10 µM
A549 NSCLC
  TGI: > 10 µM
NCI-H226 lung
  TGI: > 10 µM
COLO 205 colon
  TGI: > 10 µM
LOX IMVI melanoma
  TGI: > 10 µM
UACC-62 melanoma
  TGI: > 10 µM
ACHN renal
  TGI: > 10 µM
MCF7 breast
  TGI: > 10 µM
RXF 393 renal
  TGI: > 10 µM
OVCAR-5 ovarian
  TGI: > 10 µM
OVCAR-4 ovarian
  TGI: > 10 µM
OVCAR-3 ovarian
  TGI: > 10 µM
HCC-2998 colon
  TGI: > 10 µM
SF-539 CNS
  TGI: > 10 µM
HT29 colon
  TGI: > 10 µM
SK-MEL-5 melanoma
  TGI: > 10 µM
K-562 leukemia
  TGI: > 10 µM
HS 578T breast
  TGI: > 10 µM
MALME-3M melanoma
  TGI: > 10 µM
HCT-15 colon
  TGI: > 10 µM
UO-31 renal
  TGI: > 10 µM
A498 renal
  TGI: > 10 µM
SF-268 CNS
  TGI: > 10 µM
IGROV1 ovarian
  TGI: > 10 µM
SNB-19 CNS
  TGI: > 10 µM
HL-60(TB) leukemia
  TGI: > 10 µM
T-47D breast
  TGI: > 10 µM
CAKI-1 renal
  TGI: > 10 µM
EKVX NSCLC
  TGI: > 10 µM

## CCC1(C)N=C(C(N)=O)c2ncn(N=C(C)C)c2N1 (stereo not drawn)
SW-620 colon
  TGI: > 100 µM
CCRF-CEM leukemia
  TGI: > 100 µM
NCI-H522 lung
  TGI: > 100 µM
TK-10 renal
  TGI: > 100 µM
SK-MEL-28 melanoma
  TGI: > 100 µM
SNB-75 CNS
  TGI: > 100 µM
KM12 colon
  TGI: > 100 µM
MDA-MB-231 breast
  TGI: > 100 µM
PC-3 prostate
  TGI: > 100 µM
NCI-H23 lung
  TGI: > 100 µM
RPMI-8226 leukemia
  TGI: > 100 µM
UACC-257 melanoma
  TGI: > 100 µM
OVCAR-8 ovarian
  TGI: > 100 µM
DU-145 prostate
  TGI: > 100 µM
SR leukemia
  TGI: > 100 µM
MDA-N
  TGI: > 100 µM
HCT-116 colon
  TGI: > 100 µM
M14 melanoma
  TGI: > 100 µM
SN12C renal
  TGI: > 100 µM
NCI-H460 lung
  TGI: > 100 µM
SF-295 CNS
  TGI: > 100 µM
MDA-MB-435
  TGI: > 100 µM
SK-OV-3 ovarian
  TGI: > 100 µM
HOP-62 NSCLC
  TGI: > 100 µM
NCI/ADR-RES ovarian
  TGI: > 100 µM
A549 NSCLC
  TGI: > 100 µM
NCI-H226 lung
  TGI: > 100 µM
COLO 205 colon
  TGI: > 100 µM
LOX IMVI melanoma
  TGI: > 100 µM
UACC-62 melanoma
  TGI: > 100 µM
ACHN renal
  TGI: > 100 µM
RXF 393 renal
  TGI: > 100 µM
OVCAR-5 ovarian
  TGI: > 100 µM
OVCAR-4 ovarian
  TGI: > 100 µM
OVCAR-3 ovarian
  TGI: > 100 µM
HCC-2998 colon
  TGI: > 100 µM
U251 CNS
  TGI: > 100 µM
SF-539 CNS
  TGI: > 100 µM
HT29 colon
  TGI: > 100 µM
SK-MEL-5 melanoma
  TGI: > 100 µM
K-562 leukemia
  TGI: > 100 µM
HS 578T breast
  TGI: > 100 µM
MALME-3M melanoma
  TGI: > 100 µM
HCT-15 colon
  TGI: > 100 µM
A498 renal
  TGI: > 100 µM
SF-268 CNS
  TGI: > 100 µM
IGROV1 ovarian
  TGI: > 100 µM
SNB-19 CNS
  TGI: > 100 µM
HL-60(TB) leukemia
  TGI: > 100 µM
T-47D breast
  TGI: > 100 µM
HOP-92 NSCLC
  TGI: > 100 µM
786-0 renal
  TGI: > 100 µM
CAKI-1 renal
  TGI: > 100 µM
EKVX NSCLC
  TGI: > 100 µM

## S=C(Nc1ccc(Br)cn1)NC12CC3CC(CC(C3)C1)C2
SW-620 colon
  TGI: > 100 µM
CCRF-CEM leukemia
  TGI: 70.3 µM
NCI-H522 lung
  TGI: 37.5 µM
SK-MEL-28 melanoma
  TGI: > 100 µM
SNB-75 CNS
  TGI: 40.8 µM
KM12 colon
  TGI: > 100 µM
MDA-MB-231 breast
  TGI: 58 µM
PC-3 prostate
  TGI: 43.2 µM
NCI-H23 lung
  TGI: 38.9 µM
RPMI-8226 leukemia
  TGI: > 100 µM
MOLT-4 leukemia
  TGI: 67.6 µM
UACC-257 melanoma
  TGI: > 100 µM
OVCAR-8 ovarian
  TGI: 25.9 µM
DU-145 prostate
  TGI: > 100 µM
SR leukemia
  TGI: > 100 µM
MDA-N
  TGI: 47.7 µM
HCT-116 colon
  TGI: 35.3 µM
M14 melanoma
  TGI: > 100 µM
SK-MEL-2 melanoma
  TGI: 51.7 µM
NCI-H460 lung
  TGI: > 100 µM
SF-295 CNS
  TGI: 49.5 µM
MDA-MB-435
  TGI: > 100 µM
SK-OV-3 ovarian
  TGI: 67.6 µM
HOP-62 NSCLC
  TGI: > 100 µM
NCI/ADR-RES ovarian
  TGI: 55.7 µM
A549 NSCLC
  TGI: 53.5 µM
NCI-H226 lung
  TGI: 64.8 µM
COLO 205 colon
  TGI: > 100 µM
UACC-62 melanoma
  TGI: 43.4 µM
ACHN renal
  TGI: 56.1 µM
MCF7 breast
  TGI: > 100 µM
RXF 393 renal
  TGI: 37 µM
OVCAR-5 ovarian
  TGI: 90.7 µM
OVCAR-4 ovarian
  TGI: > 100 µM
OVCAR-3 ovarian
  TGI: > 100 µM
HCC-2998 colon
  TGI: 83.3 µM
U251 CNS
  TGI: 30 µM
SF-539 CNS
  TGI: 33.7 µM
K-562 leukemia
  TGI: > 100 µM
MALME-3M melanoma
  TGI: 58.9 µM
HCT-15 colon
  TGI: > 100 µM
UO-31 renal
  TGI: > 100 µM
A498 renal
  TGI: > 100 µM
SF-268 CNS
  TGI: 34.5 µM
IGROV1 ovarian
  TGI: 30.2 µM
SNB-19 CNS
  TGI: 25.9 µM
T-47D breast
  TGI: > 100 µM
HOP-92 NSCLC
  TGI: 26.4 µM
786-0 renal
  TGI: 21.3 µM
CAKI-1 renal
  TGI: > 100 µM
EKVX NSCLC
  TGI: 65 µM

## CSCCCCCCCCCCOc1ccc(C=C2C(=C(C#N)C#N)c3ccccc3C2=C(C#N)C#N)cc1
SW-620 colon
  TGI: 37.8 µM
CCRF-CEM leukemia
  TGI: 12.2 µM
NCI-H522 lung
  TGI: 38.2 µM
TK-10 renal
  TGI: 36.1 µM
SK-MEL-28 melanoma
  TGI: 29.6 µM
KM12 colon
  TGI: 36.8 µM
MDA-MB-231 breast
  TGI: 35.7 µM
PC-3 prostate
  TGI: 31.4 µM
NCI-H23 lung
  TGI: 48.9 µM
RPMI-8226 leukemia
  TGI: > 100 µM
MOLT-4 leukemia
  TGI: 64.5 µM
UACC-257 melanoma
  TGI: 35.4 µM
OVCAR-8 ovarian
  TGI: 39.6 µM
DU-145 prostate
  TGI: 28.9 µM
SR leukemia
  TGI: 52.6 µM
MDA-N
  TGI: 38.3 µM
HCT-116 colon
  TGI: 34.2 µM
M14 melanoma
  TGI: 32.1 µM
SK-MEL-2 melanoma
  TGI: 36.7 µM
NCI-H460 lung
  TGI: 32.2 µM
SF-295 CNS
  TGI: 34 µM
MDA-MB-435
  TGI: 32.9 µM
SK-OV-3 ovarian
  TGI: 32.1 µM
HOP-62 NSCLC
  TGI: 32.2 µM
NCI/ADR-RES ovarian
  TGI: 75.7 µM
NCI-H226 lung
  TGI: 79.9 µM
LOX IMVI melanoma
  TGI: 61.7 µM
ACHN renal
  TGI: 29.5 µM
MCF7 breast
  TGI: 32.3 µM
RXF 393 renal
  TGI: 35.1 µM
OVCAR-5 ovarian
  TGI: 30.2 µM
OVCAR-4 ovarian
  TGI: 41.3 µM
OVCAR-3 ovarian
  TGI: 30 µM
U251 CNS
  TGI: 31.2 µM
SF-539 CNS
  TGI: 37.3 µM
HT29 colon
  TGI: 31 µM
SK-MEL-5 melanoma
  TGI: 31.9 µM
K-562 leukemia
  TGI: > 100 µM
HS 578T breast
  TGI: 44.6 µM
HCT-15 colon
  TGI: 46.8 µM
UO-31 renal
  TGI: 29.9 µM
A498 renal
  TGI: 33.1 µM
SF-268 CNS
  TGI: 34.2 µM
IGROV1 ovarian
  TGI: 34.7 µM
HL-60(TB) leukemia
  TGI: 4.34 µM
T-47D breast
  TGI: 51.4 µM
HOP-92 NSCLC
  TGI: 26.9 µM
786-0 renal
  TGI: 37.4 µM
CAKI-1 renal
  TGI: 32.3 µM
EKVX NSCLC
  TGI: 34.5 µM
